Results from patent publication US20100249145A1, “Inhibitors of VEGF Receptor and HGF Receptor Signaling” (Methylgene, Inc., priority 2005, published 2010).

What was measured:
A549 = test: In vivo solid tumor disease model, A549 xenograft; design: species or system female athymic CD 1 mice
DU145 = test: In vivo solid tumor disease model, DU145 xenograft; design: species or system female athymic CD 1 mice; details: 10 days
A431 cells = test: In vivo solid tumor disease model, A431 xenograft; design: species or system female athymic CD 1 mice; details: 30 mg/kg once daily IP, vehicle DMSO, 14 days
Text: (§1) In Vivo Solid Tumor Disease Model
(§2) This test measures the capacity of compounds to inhibit solid tumor growth.
(§3) Tumor xenografts were established in the flank of female athymic CD 1 mice (Charles River Inc.), by subcutaneous injection of 1×10^6U87, A431 or SKLMS cells/mouse. Once established, tumors were then serially passaged s.c. in nude mice hosts. Tumor fragments from these host animals were used in subsequent compound evaluation experiments. For compound evaluation experiments female nude mice weighing approximately 20 g were implanted s.c. by surgical implantation with tumor fragments of ˜30 mg from donor tumors. When the tumors were approximately 100 mm^3 in size (˜7-10 days following implantation), the animals were randomized a separated into treatment and control groups. Each group contained 6-8 tumor-bearing mice, each of which was ear-tagged and followed individually throughout the experiment
(§4) Mice were weighed and tumor measurements are taken by calipers three times weekly, starting on Day 1. These tumor measurements were converted to tumor volume by the well-known formula (L+W/4)^34/3π. The experiment was terminated when the control tumors reached a size of approximately 1500 mm^3. In this model, the change in mean tumor volume for a compound treated group/the change in mean tumor volume of the control group (non-treated or vehicle treated)×100 (ΔT/ΔC) was subtracted from 100 to give the percent tumor growth inhibition (% TGI) for each test compound. In addition to tumor volumes, body weight of animals were monitored twice weekly for up to 3 weeks.
(§5) Regiment of administration was once daily.

U87 cells = test: In vivo solid tumor disease model, U87 xenograft; design: species or system female athymic CD 1 mice; details: U87MG
Text: as §1, §2, §3, §4, §5

VEGF receptor KDR = target: T1, VEGF receptor KDR (Homo sapiens, UniProt P35968); test: In vitro receptor tyrosine kinase assay (DELFIA), VEGF receptor KDR; type: biochemical; details: Table 30; ATP 0.6 uM, enzyme 5 nM; read-out: VEGF(enz.) (IC50)
T1 construct: made in house; host or cells: Sf9 cells (Spodoptera frugiperda), recombinant baculovirus
T1 sequence (P35968 806-1356): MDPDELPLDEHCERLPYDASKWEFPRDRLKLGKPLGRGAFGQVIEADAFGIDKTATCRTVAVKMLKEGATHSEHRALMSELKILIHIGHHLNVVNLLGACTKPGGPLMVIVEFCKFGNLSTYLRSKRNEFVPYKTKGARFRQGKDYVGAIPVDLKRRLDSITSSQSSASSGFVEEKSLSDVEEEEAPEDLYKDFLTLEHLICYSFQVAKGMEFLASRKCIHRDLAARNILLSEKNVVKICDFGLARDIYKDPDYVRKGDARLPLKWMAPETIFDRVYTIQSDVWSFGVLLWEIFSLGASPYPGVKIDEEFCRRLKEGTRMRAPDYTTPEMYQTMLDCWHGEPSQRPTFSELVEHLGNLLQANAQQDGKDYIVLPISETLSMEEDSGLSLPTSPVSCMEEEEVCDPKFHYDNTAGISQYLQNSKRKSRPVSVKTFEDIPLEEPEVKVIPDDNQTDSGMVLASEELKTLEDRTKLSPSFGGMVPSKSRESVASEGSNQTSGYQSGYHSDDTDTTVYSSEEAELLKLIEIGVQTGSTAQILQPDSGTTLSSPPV

[1] = target: T2, recombinant human c-Met/HGF receptor (Homo sapiens, UniProt P08581); test: In vitro receptor tyrosine kinase assay (DELFIA), c-Met/HGF receptor; type: biochemical; details: Table 30; ATP 10 uM, enzyme 25 nM; read-out: C-Met (enz.) (IC50)
T2 construct: His tag (histidine tag from pBlueBacHis2A); made in house; host or cells: Hi-5 cells (Trichoplusia ni), recombinant baculovirus
T2 sequence (P08581 1078-1337): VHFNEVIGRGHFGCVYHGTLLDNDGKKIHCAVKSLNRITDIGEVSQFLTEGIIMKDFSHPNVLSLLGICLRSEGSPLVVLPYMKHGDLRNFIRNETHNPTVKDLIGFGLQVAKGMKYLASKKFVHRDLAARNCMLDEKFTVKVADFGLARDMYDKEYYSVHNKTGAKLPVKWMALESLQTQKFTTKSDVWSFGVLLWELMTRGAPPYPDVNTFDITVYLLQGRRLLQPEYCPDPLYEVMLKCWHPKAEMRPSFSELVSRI

TPR-MET fusion protein = TPR-MET fusion protein (Homo sapiens, UniProt P08581); test: C-Met phosphorylation cell-based assay (MNNGHOS cells, immunoblot); details: Table 30, 3 hours treatment, read-out: C-Met cell-based Y1230-34-35 tpr-met inhibition (IC50)
Chain of TPR-MET fusion protein (P08581 with tags, fused parts or gaps): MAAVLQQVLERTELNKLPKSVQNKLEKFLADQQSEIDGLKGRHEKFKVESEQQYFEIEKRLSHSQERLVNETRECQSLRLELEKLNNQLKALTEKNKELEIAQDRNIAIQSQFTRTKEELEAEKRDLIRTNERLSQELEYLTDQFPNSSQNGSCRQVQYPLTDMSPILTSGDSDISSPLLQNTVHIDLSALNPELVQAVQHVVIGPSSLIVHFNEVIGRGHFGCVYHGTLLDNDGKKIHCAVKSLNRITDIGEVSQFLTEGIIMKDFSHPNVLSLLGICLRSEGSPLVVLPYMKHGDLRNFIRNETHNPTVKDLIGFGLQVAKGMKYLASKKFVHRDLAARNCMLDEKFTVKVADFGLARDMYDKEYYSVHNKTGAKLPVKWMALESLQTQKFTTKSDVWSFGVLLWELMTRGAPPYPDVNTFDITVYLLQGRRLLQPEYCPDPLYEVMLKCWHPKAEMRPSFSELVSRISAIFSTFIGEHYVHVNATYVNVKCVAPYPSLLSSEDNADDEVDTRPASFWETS
Text: C-Met Phosphorylation Cell-Based Assay

SKLMS cells = test: In vivo solid tumor disease model, SKLMS xenograft; design: species or system female athymic CD 1 mice; details: SKLMS40, vehicle DMSO, 10 days
Text: as §1, §2, §3, §4, §5

MKN74 = test: In vivo solid tumor disease model, MKN74 xenograft; design: species or system female athymic CD 1 mice; details: vehicle DMSO, 10 days
HCT116 = test: In vivo solid tumor disease model, HCT116 xenograft; design: species or system female athymic CD 1 mice
SW48 = test: In vivo solid tumor disease model, SW48 xenograft; design: species or system female athymic CD 1 mice; details: 30 mg/kg once daily IP, vehicle DMSO, 14 days
[2] = 30 mg/kg once daily IP, vehicle DMSO, 14 days
[3] = 75 mg/kg once daily PO, vehicle 5% DMSO - 1% Tween-80 in water, 10 days
[4] = 75 mg/kg once daily PO, vehicle 5% DMSO - 1% Tween-80 in water, 14 days
[5] = 30 mg/kg once daily IP, vehicle DMSO
[6] = 15 mg/kg once daily IV, vehicle 50/50 DMSO:40/60 PEG/0.2 N HCl in saline, 10 days
[7] = 30 mg/kg once daily IV, vehicle 50/50 DMSO:40/60 PEG/0.2 N HCl in saline, 10 days
[8] = 15 mg/kg once daily IP, vehicle DMSO
[9] = 75 mg/kg once daily PO, vehicle 5% DMSO - 1% Tween-80 in water, 12 days
[10] = 15 mg/kg once daily IP, vehicle DMSO, 10 days
[11] = 30 mg/kg once daily IP, vehicle DMSO, 10 days
[12] = 100 mg/kg once daily PO, vehicle 5% DMSO - 1% Tween-80 in water, 14 days

Cn1cnc(-c2cc3nccc(Oc4ccc(NC(=S)NC(=O)Cc5ccccc5)cc4F)c3s2)c1 [Example 76, N-(3-Fluoro-4-(2-(1-methyl-1H-imidazol-4-yl)thieno[3,2-b]pyridin-7-yloxy)phenylcarbamothioyl)-2-phenylacetamide]
Tumor Growth Inhibition (%) (A549; [2]): b (% TGI in the range of 50-74)
Tumor Growth Inhibition (%) (A549; [3]): b (% TGI in the range of 50-74)
Tumor Growth Inhibition (%) (A549; [4]): c (% TGI in the range of 25-49)
Tumor Growth Inhibition (%) (DU145; 75 mg/kg once daily PO, vehicle 5% DMSO - 1% Tween-80 in water): c (% TGI in the range of 25-49)

Cl.O=C(Cc1c(F)cccc1F)NC(=S)Nc1ccc(Oc2ccnc3cc(C(=O)N4CCCC4)sc23)c(F)c1 [Example 157, 2-(2,6-Difluorophenyl)-N-(3-fluoro-4-(2-(pyrrolidine-1-carbonyl)thieno[3,2-b]pyridin-7-yloxy)phenylcarbamothioyl)acetamide hydrochloride]
Tumor Growth Inhibition (%) (A549; [2]): c (% TGI in the range of 25-49)
Tumor Growth Inhibition (%) (A431 cells): c (% TGI in the range of 25-49)

CC(C)(C)OC(=O)NC1CCN(C(=O)c2cc3ncnc(Oc4ccc(NC(=S)NC(=O)Cc5ccccc5)cc4F)c3s2)C1 (stereo not drawn) [Example 148, tert-Butyl 1-(4-(2-fluoro-4-(3-(2-phenylacetyl)thioureido)phenoxy)thieno[3,2-d]pyrimidine-6-carbonyl)pyrrolidin-3-ylcarbamate]
Tumor Growth Inhibition (%) (U87 cells; 30 mg/kg once daily IP, vehicle 50/50 DMSO:40/60 PEG/0.2 N HCl in saline, 10 days): c (% TGI in the range of 25-49)
Tumor Growth Inhibition (%) (DU145; [5]): c (% TGI in the range of 25-49)

O=C(Cc1ccccc1)NC(=S)Nc1ccc(Oc2ccnc3cc(C(=O)N4CC[C@@H](O)C4)sc23)c(F)c1 [Example 38, (R)-N-(3-Fluoro-4-(2-(3-hydroxypyrrolidine-1-carbonyl)thieno[3,2-b]pyridin-7-yloxy)phenylcarbamothioyl)-2-phenylacetamide]
Tumor Growth Inhibition (%) (A549; [2]): c (% TGI in the range of 25-49)
Tumor Growth Inhibition (%) (A431 cells): c (% TGI in the range of 25-49)

O=C(Cc1ccccc1)NC(=S)Nc1ccc(Oc2ccnc3cc(C(=O)N4CCCC4)sc23)c(F)c1 [Example 37, 1-{3-Fluoro-4-[2-(pyrrolidine-1-carbonyl)-thieno[3,2-b]pyridin-7-yloxy]-phenyl}-3-phenylacetyl-thiourea]
Tumor Growth Inhibition (%) (A549; [2]): c (% TGI in the range of 25-49)
Tumor Growth Inhibition (%) (U87 cells; [6]): b (% TGI in the range of 50-74)
Tumor Growth Inhibition (%) (U87 cells; [7]): c (% TGI in the range of 25-49)
IC50 (VEGF receptor KDR): < 50 nM
Tumor Growth Inhibition (%) (A431 cells): b (% TGI in the range of 50-74)
Tumor Growth Inhibition (%) (DU145; [8]): d (% TGI in the range of 0-24)
Tumor Growth Inhibition (%) (DU145; [5]): d (% TGI in the range of 0-24)
IC50 [1]: 50 to 250 nM
IC50 (TPR-MET fusion protein): < 50 nM

Cn1ccnc1-c1cc2nccc(Oc3ccc(NC(=S)NC(=O)Cc4ccccc4)cc3F)c2s1 [Example 15, N-(3-Fluoro-4-(2-(1-methyl-1H-imidazol-2-yl)thieno[3,2-b]pyridin-7-yloxy)phenylcarbamothioyl)-2-phenylacetamide]
Tumor Growth Inhibition (%) (A549; [2]): b (% TGI in the range of 50-74)
Tumor Growth Inhibition (%) (A549; 50 mg/kg once daily PO, vehicle 5% DMSO - 1% Tween-80 in water, 11 days): c (% TGI in the range of 25-49)
Tumor Growth Inhibition (%) (A549; [3]): b (% TGI in the range of 50-74)
Tumor Growth Inhibition (%) (A549; [9]): c (% TGI in the range of 25-49)
Tumor Growth Inhibition (%) (U87 cells; [10]): b (% TGI in the range of 50-74)
Tumor Growth Inhibition (%) (U87 cells; [6]): b (% TGI in the range of 50-74)
Tumor Growth Inhibition (%) (U87 cells; [11]): b (% TGI in the range of 50-74)
Tumor Growth Inhibition (%) (U87 cells; [2]): b (% TGI in the range of 50-74)
Tumor Growth Inhibition (%) (U87 cells; [7]): b (% TGI in the range of 50-74)
Tumor Growth Inhibition (%) (U87 cells; [12]): a (% TGI in the range of 75-100)
IC50 (VEGF receptor KDR): < 50 nM
Tumor Growth Inhibition (%) (SKLMS cells; 30 mg/kg once daily IP): b (% TGI in the range of 50-74)
Tumor Growth Inhibition (%) (MKN74; 15 mg/kg once daily IP): c (% TGI in the range of 25-49)
Tumor Growth Inhibition (%) (MKN74; 30 mg/kg once daily IP): c (% TGI in the range of 25-49)
Tumor Growth Inhibition (%) (A431 cells): b (% TGI in the range of 50-74)
Tumor Growth Inhibition (%) (HCT116; HCT116, 15 mg/kg once daily IP, vehicle DMSO, 10 days): c (% TGI in the range of 25-49)
Tumor Growth Inhibition (%) (HCT116; HCT116, 30 mg/kg once daily IP, vehicle DMSO, 10 days): c (% TGI in the range of 25-49)
Tumor Growth Inhibition (%) (DU145; [8]): d (% TGI in the range of 0-24)

CCN(CC)C(=O)c1cc2nccc(Oc3ccc(NC(=S)NC(=O)Cc4ccccc4)cc3F)c2s1 [Example 7, 1-(4-(2-(diethylcarbamoyl)thieno[3,2-b]pyridin-7-yloxy)-3-fluorophenyl)-3-(2-phenylacetyl)thiourea]
IC50 (VEGF receptor KDR): 250 to 500 nM
Tumor Growth Inhibition (%) (HCT116; HCT116, 30 mg/kg once daily IP, vehicle DMSO, 14 days): b (% TGI in the range of 50-74)
IC50 [1]: 50 to 250 nM
IC50 (TPR-MET fusion protein): 50 to 250 nM
Tumor Growth Inhibition (%) (SW48): c (% TGI in the range of 25-49)

O=C(Cc1ccccc1)NC(=S)Nc1ccc(Oc2ccnc3cc(-c4nccs4)sc23)c(F)c1 [Example 12, 1-(4-(2-(Thiazol-2-yl)thieno[3,2-b]pyridin-7-yloxy)-3-fluorophenyl)-3-(2-phenylacetyl)thiourea]
Tumor Growth Inhibition (%) (U87 cells; [2]): b (% TGI in the range of 50-74)
IC50 (VEGF receptor KDR): < 50 nM
Tumor Growth Inhibition (%) (HCT116; HST116, 30 mg/kg once daily IP, vehicle DMSO, 14 days): c (% TGI in the range of 25-49)
IC50 [1]: 50 to 250 nM
IC50 (TPR-MET fusion protein): < 50 nM

Cn1cnnc1-c1cc2nccc(Oc3ccc(NC(=S)NC(=O)Cc4ccccc4)cc3F)c2s1 [Example 75, N-(3-Fluoro-4-(2-(4-methyl-4H-1,2,4-triazol-3-yl)thieno[3,2-b]pyridin-7-yloxy)phenylcarbamothioyl)-2-phenylacetamide]
Tumor Growth Inhibition (%) (A549; [9]): b (% TGI in the range of 50-74)
Tumor Growth Inhibition (%) (U87 cells; [10]): d (% TGI in the range of 0-24)
Tumor Growth Inhibition (%) (U87 cells; [11]): c (% TGI in the range of 25-49)
Tumor Growth Inhibition (%) (U87 cells; [2]): c (% TGI in the range of 25-49)
Tumor Growth Inhibition (%) (U87 cells; [12]): b (% TGI in the range of 50-74)
IC50 (VEGF receptor KDR): < 50 nM
Tumor Growth Inhibition (%) (SKLMS cells; 15 mg/kg once daily IP): b (% TGI in the range of 50-74)
Tumor Growth Inhibition (%) (DU145; [8]): c (% TGI in the range of 25-49)

CCn1cnc(-c2cc3nccc(Oc4ccc(NC(=S)NC(=O)Cc5ccccc5F)cc4F)c3s2)c1 [Example 242, 1-{4-[2-(1-Ethyl-1H-imidazol-4-yl)-thieno[3,2-b]pyridin-7-yloxy]-3-fluoro-phenyl}-3-[2-(2-fluoro-phenyl)-acetyl]-thiourea]
Tumor Growth Inhibition (%) (U87 cells; [4]): a (% TGI in the range of 75-100)
Tumor Growth Inhibition (%) (HCT116; HCT116, 75 mg/kg once daily PO, vehicle 5% DMSO - 1% Tween-80 in water, 14 days): b (% TGI in the range of 50-74)
